# According to US12042511B1, “Inhalation delivery methods and compositions for vitamin B12” (priority 2017, dated 2024):
# Tests used:
# [1] = bioavailability/absorption of methylcobalamin in inhalable form compared with other forms of B12; assay type: in vivo, human; conditions: persons with a methylenetetrahydrofolate reductase (MTHFR) genetic mutation
# Protocol: When a person is determined to have MTHFR or another condition that causes the person to have a reduced ability to process B-vitamin supplements and convert them into a usable form in the body, the person may be administered methylcobalamin by inhalation for proper B12 supplementation.
# [2] = B12 blood levels after inhalation of methylcobalamin solution (vaporizer/electronic cigarette); assay type: in vivo, human
# Protocol: A new method for vitamin B12 supplementation involves determining that a person has a disorder causing the person to have a reduced ability to process one or more forms of B-vitamins and convert them into a usable form in the body and administering methylcobalamin to the person in aerosol form or in water vapor, for inhalation. In some embodiments, the person is determined to have a MTHFR gene mutation. In some embodiments, the methylcobalamin is administered as part of a mixture also comprising vegetable glycerin and water. In some embodiments, the determined disorder includes anemia, pernicious anemia, and/or advanced age. In some embodiments, administering methylcobalamin involves administering at least 500 mcg of methylcobalamin in one day or in one week. For example, 500 mcg of methylcobalamin may be administered in a single daily or weekly dose. Depending on the concentration of the methylcobalamin in the solution used to administer the methylcobalamin, 500 mcg of methylcobalamin may be administered in 0.01 mL or more of solution. The concentration of methylcobalamin in solution for a vaporizer/electronic cigarette application in some embodiments is 1,000 mcg/mL or higher, in preferred embodiments 2,000 mcg/mL or higher. […]
structure (smiles),measurement,setting,value
C/C1=C2/[N-][C@H]([C@H](CC(N)=O)[C@@]2(C)CCC(=O)NC[C@@H](C)OP(=O)([O-])O[C@H]2[C@@H](O)[C@@H](n3cnc4cc(C)c(C)cc43)O[C@@H]2CO)[C@]2(C)N=C(/C(C)=C3N=C(/C=C4N=C1[C@@H](CCC(N)=O)C\4(C)C)[C@@H](CCC(N)=O)[C@]\3(C)CC(N)=O)[C@@H](CCC(N)=O)[C@]2(C)CC(N)=O.[CH3-].[Co+3] [methylcobalamin],absorption relative to other forms of B12,[1],more easily absorbed than other forms of B12
same,levels of B12 in a user's blood,"[2]; lower concentrations (below 1,000 mcg/mL) of methylcobalamin in solution",no effect on the user's blood levels of B12
same,levels of B12 in a user's blood,"[2]; methylcobalamin concentration in solution 1,000 mcg/mL or higher, vaporizer/electronic cigarette, immediately after treatment (within about 5 minutes) and persistently",substantially increasing levels of B12 in a user's blood
